Common to all, as to format: biochemical
One experiment concerns the target T1, PIM1 (Homo sapiens, UniProt P11309).
T1 construct: MRC Protein Phosphorylation Unit, University of Dundee (screening panel)
The experiment is described as follows: Radioactive (33P-ATP) filter-binding kinase assay, IC50. The protocol:
(§1) Selected compounds were screened against a panel of mammalian kinases routinely run in the MRC Protein Phosphorylation Unit at the University of Dundee (www.kinase-screen.mrc.ac.uk).[21] Compounds were supplied in DMSO and screened in duplicates at 100 μM concentration using a radioactive (^33P-ATP) filter-binding-assay. For hit validation and all subsequent IC50 determinations, selected compounds were solubilized in DMSO at a top concentration of 51 mM and serially diluted to achieve 10-point titration of final assay concentrations from 1 mM to 30 nM. All IC50 determination assays were done in duplicate and the IC50 values were calculated using Prism (GraphPad Software, Inc.). All biochemical assays were run below the Km^app for the ATP for each enzyme allowing comparison of inhibition across the panel.

The target of the next experiment is T2, PIM3 (Homo sapiens, UniProt Q86V86).
T2 construct: MRC Protein Phosphorylation Unit, University of Dundee (screening panel)
Described as above. The protocol:
as §1

In a further experiment the target is T3, Aurora A (Homo sapiens, UniProt O14965).
T3 construct: MRC Protein Phosphorylation Unit, University of Dundee (screening panel)
Described as above. How it is done:
as §1

The target in the next experiment is T4, CK2 (Homo sapiens, UniProt P68400).
T4 construct: MRC Protein Phosphorylation Unit, University of Dundee (screening panel)
The experiment is described as above. How it is done:
as §1

Another experiment deals with T5, FGF-R1 (Homo sapiens, UniProt P11362).
T5 construct: MRC Protein Phosphorylation Unit, University of Dundee (screening panel)
The description is as above. How it is done:
as §1

In another experiment the target is T6, GCK (Homo sapiens, UniProt Q12851).
T6 construct: MRC Protein Phosphorylation Unit, University of Dundee (screening panel)
The description is as above. The protocol:
as §1

In a further experiment the target is T7, IGF-1R (Homo sapiens, UniProt P08069).
T7 construct: MRC Protein Phosphorylation Unit, University of Dundee (screening panel)
The experiment is described as above. How it is done: as §1

A further experiment addresses T8, TAK1 (Homo sapiens, UniProt O43318).
T8 construct: MRC Protein Phosphorylation Unit, University of Dundee (screening panel)
The description is as above. The protocol: as §1

The target of the next experiment is CDK2 (Homo sapiens, UniProt P24941). The experiment is described as above.
The next experiment addresses CLK2 (Homo sapiens, UniProt P49760). The description is as above.
Experiment [1] deals with panel of 117 protein kinases. The experiment in a line: Kinase panel screen at 100 μM, radioactive filter-binding assay. To be noted: for number of kinases inhibited with >40% inhibition: panel of 117 kinases; for number of kinases of the docking panel for which activity was found: only kinases in the docking panel. The protocol: (§2) A subset of library compounds was tested against a panel of 117 protein kinases as proof of concept study (Figure 4). The compounds were chosen to cover all six core fragments and to be fragment-sized (MW < 300 Da), therefore having a higher probability of inhibiting a kinase compared to more elaborated library compounds with the potential draw-back of having only moderate binding affinity.[25] […] According to these definitions, all assayed compounds were at least moderately active against at least one kinase (Figure 5a).
as §1

The next experiment concerns the target T9, EPH-B3 (Homo sapiens, UniProt P54753).
T9 construct: MRC Protein Phosphorylation Unit, University of Dundee (screening panel)
The experiment is described as follows: Radioactive (33P-ATP) filter-binding kinase assay, IC50. The protocol: as §1

The next experiment has as its target T10, MAPKAP-K3 (Homo sapiens, UniProt Q16644).
T10 construct: MRC Protein Phosphorylation Unit, University of Dundee (screening panel)
The experiment is described as above. How it is done: as §1

Another experiment concerns the target T11, RSK2 (Homo sapiens, UniProt P51812).
T11 construct: MRC Protein Phosphorylation Unit, University of Dundee (screening panel)
The description is as above. How it is done: as §1

Another experiment deals with T12, Src (Homo sapiens, UniProt P12931).
T12 construct: MRC Protein Phosphorylation Unit, University of Dundee (screening panel)
The description is as above. How it is done:
as §1

The target in a further experiment is T13, SRPK1 (Homo sapiens, UniProt Q96SB4).
T13 construct: MRC Protein Phosphorylation Unit, University of Dundee (screening panel)
Described as above.

A further experiment addresses T14, CHK2 (Homo sapiens, UniProt O96017).
T14 construct: MRC Protein Phosphorylation Unit, University of Dundee (screening panel)
Described as above. How it is done: as §1

In the next experiment the target is T15, HER4 (Homo sapiens, UniProt Q15303).
T15 construct: MRC Protein Phosphorylation Unit, University of Dundee (screening panel)
Described as above. The protocol:
as §1

For the next experiment, the target named is T16, YES1 (Homo sapiens, UniProt P07947).
T16 construct: MRC Protein Phosphorylation Unit, University of Dundee (screening panel)
The description is as above. The protocol:
as §1

The next experiment deals with VEG-FR (Homo sapiens, UniProt P35968). The description is as above.
A further experiment addresses T17, SGK1 (Homo sapiens, UniProt O00141).
T17 construct: MRC Protein Phosphorylation Unit, University of Dundee (screening panel)
The experiment is described as above. How it is done:
as §1

Another experiment deals with GSK-3β (Homo sapiens, UniProt P49841). Described as above.
A further experiment deals with T18, MKK1 (Homo sapiens, UniProt Q02750).
T18 construct: MRC Protein Phosphorylation Unit, University of Dundee (screening panel)
The experiment is described as follows: Kinase panel screen at 100 μM, radioactive filter-binding assay. How it is done: as §2, §1

In another experiment the target is T19, MSK1 (Homo sapiens, UniProt O75582).
T19 construct: MRC Protein Phosphorylation Unit, University of Dundee (screening panel)
The description is as above. The protocol: as §2, §1

T5 sequence (P11362 22-822, species assumed): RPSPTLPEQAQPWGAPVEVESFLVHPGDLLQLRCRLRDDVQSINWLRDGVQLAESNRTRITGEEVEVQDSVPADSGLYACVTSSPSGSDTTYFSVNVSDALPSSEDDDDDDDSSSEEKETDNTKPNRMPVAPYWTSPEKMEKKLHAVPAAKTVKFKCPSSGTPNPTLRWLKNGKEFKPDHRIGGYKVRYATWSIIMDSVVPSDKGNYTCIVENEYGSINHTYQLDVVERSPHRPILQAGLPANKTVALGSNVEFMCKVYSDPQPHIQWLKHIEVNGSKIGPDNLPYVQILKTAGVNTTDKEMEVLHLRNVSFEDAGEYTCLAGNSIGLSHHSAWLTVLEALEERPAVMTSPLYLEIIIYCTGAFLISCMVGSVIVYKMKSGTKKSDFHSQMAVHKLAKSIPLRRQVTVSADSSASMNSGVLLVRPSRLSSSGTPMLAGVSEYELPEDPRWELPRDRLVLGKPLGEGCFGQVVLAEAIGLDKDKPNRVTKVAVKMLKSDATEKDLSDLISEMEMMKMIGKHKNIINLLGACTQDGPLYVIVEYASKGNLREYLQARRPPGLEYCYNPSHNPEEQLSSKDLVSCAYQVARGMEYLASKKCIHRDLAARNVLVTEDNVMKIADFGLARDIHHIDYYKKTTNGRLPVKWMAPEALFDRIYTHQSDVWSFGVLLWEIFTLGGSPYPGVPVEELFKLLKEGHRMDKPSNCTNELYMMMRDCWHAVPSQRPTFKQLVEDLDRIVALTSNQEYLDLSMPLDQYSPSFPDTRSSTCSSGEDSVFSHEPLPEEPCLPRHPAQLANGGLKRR
T12 sequence (P12931 whole entry, species assumed): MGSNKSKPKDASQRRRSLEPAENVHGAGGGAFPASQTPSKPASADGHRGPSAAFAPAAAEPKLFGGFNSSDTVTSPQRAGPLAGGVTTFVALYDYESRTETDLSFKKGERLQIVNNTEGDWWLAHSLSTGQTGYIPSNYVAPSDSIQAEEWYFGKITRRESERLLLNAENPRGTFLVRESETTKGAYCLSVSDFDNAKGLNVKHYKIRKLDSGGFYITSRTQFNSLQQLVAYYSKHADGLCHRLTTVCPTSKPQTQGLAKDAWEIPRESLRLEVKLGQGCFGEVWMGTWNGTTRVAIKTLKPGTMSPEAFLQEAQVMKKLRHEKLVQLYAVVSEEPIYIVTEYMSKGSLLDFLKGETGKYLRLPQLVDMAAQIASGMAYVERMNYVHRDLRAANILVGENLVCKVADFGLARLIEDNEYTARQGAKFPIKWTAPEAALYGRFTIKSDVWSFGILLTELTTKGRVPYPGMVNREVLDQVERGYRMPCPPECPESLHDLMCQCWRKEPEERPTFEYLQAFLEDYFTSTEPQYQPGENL
T8 sequence (O43318 1-303 limits assumed): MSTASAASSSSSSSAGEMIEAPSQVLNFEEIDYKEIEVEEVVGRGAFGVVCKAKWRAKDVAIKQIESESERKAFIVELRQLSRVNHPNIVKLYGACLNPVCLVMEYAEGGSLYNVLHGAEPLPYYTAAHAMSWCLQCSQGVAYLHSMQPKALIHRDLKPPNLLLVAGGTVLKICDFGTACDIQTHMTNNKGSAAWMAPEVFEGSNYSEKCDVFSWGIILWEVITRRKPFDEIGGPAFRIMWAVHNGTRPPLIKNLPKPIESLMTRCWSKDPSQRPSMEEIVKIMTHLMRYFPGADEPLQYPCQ
T6 sequence (Q12851 whole entry): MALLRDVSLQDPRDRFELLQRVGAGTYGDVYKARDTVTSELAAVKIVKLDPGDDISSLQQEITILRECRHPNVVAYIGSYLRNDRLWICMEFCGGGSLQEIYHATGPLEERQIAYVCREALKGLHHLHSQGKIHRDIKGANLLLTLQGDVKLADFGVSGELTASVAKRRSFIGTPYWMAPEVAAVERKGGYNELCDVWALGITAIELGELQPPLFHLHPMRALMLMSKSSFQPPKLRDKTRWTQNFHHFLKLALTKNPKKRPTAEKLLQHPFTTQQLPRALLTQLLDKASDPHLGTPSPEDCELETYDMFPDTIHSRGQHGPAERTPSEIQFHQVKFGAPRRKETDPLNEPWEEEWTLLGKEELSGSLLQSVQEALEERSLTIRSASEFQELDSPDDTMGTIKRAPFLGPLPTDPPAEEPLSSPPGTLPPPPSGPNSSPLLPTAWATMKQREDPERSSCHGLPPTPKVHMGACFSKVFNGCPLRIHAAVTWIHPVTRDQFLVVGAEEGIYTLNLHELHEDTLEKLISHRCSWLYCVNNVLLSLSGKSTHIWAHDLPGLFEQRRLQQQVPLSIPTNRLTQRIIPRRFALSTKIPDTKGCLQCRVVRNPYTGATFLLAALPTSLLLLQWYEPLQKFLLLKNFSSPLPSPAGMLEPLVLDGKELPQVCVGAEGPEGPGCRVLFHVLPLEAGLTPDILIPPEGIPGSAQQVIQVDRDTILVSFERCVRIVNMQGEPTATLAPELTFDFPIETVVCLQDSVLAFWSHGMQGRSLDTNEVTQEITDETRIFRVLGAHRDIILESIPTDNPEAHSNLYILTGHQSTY
T4 sequence (P68400 whole entry): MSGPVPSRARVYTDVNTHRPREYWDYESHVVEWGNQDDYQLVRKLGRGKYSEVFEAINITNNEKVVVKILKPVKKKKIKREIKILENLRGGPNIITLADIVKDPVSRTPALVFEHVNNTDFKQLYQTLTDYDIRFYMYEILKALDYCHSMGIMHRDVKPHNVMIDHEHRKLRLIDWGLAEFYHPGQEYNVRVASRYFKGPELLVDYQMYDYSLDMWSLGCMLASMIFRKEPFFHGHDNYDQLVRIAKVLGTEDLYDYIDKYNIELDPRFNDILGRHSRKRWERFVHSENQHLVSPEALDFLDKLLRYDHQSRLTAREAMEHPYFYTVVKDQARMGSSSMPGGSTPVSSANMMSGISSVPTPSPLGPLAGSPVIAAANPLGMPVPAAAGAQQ
T7 sequence (P08069 31-1367, species assumed): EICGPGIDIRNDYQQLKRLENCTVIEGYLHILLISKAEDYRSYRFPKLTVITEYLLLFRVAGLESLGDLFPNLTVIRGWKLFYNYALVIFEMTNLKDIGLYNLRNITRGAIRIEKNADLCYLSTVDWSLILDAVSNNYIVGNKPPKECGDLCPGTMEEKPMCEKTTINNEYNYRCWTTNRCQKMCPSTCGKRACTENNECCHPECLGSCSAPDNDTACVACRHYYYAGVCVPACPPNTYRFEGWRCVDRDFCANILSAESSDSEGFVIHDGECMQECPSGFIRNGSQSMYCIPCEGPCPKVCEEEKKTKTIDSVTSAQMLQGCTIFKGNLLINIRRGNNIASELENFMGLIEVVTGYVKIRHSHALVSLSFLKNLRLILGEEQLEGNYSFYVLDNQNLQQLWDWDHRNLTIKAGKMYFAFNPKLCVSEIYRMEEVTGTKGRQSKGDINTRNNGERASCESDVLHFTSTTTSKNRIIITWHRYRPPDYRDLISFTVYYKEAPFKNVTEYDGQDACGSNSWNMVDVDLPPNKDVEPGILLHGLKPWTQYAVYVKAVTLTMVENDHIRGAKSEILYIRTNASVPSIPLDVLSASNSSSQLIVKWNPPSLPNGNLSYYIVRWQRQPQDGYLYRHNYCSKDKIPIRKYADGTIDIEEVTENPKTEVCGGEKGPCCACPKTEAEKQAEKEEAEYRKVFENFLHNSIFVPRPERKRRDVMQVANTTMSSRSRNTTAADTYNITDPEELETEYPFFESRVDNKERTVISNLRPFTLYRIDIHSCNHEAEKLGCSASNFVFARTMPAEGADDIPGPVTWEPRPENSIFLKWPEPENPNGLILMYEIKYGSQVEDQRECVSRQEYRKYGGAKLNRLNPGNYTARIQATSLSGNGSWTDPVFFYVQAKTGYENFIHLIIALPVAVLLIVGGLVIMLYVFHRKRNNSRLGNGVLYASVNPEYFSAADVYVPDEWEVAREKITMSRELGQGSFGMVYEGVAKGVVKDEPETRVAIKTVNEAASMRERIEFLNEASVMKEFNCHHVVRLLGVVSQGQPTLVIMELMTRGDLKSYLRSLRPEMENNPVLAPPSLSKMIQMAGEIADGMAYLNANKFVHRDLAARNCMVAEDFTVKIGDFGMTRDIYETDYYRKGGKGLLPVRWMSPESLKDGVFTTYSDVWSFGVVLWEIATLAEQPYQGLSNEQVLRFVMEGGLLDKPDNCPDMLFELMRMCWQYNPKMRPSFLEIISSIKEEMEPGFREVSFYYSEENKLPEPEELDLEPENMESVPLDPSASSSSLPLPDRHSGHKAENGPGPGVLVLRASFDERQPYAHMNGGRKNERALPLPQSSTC
GSK-3β, sequence (P49841 whole entry, species assumed): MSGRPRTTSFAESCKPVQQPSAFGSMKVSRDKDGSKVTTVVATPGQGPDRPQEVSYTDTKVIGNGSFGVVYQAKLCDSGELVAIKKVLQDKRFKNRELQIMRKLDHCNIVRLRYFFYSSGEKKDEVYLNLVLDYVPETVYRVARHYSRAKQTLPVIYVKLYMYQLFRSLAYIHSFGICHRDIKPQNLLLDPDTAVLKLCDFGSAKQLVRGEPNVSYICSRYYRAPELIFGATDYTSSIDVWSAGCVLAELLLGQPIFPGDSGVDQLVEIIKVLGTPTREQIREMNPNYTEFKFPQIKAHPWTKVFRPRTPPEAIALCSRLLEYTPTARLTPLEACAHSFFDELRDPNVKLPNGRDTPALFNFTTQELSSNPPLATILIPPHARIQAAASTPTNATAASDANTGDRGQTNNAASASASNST
T17 sequence (O00141 whole entry, species assumed): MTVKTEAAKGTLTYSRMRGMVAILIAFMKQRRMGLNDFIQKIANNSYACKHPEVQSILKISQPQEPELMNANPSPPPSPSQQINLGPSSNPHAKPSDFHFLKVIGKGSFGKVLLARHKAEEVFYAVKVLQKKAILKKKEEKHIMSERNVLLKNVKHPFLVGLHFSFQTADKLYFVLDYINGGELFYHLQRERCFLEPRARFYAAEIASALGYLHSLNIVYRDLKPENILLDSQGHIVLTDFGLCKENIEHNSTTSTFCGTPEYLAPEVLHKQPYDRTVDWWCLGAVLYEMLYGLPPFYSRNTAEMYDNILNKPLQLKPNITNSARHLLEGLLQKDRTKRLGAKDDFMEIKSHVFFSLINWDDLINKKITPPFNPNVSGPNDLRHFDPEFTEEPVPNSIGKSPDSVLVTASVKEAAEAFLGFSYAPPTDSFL

`O=c1cc(-c2ccccc2F)nc2[nH]ccn12` [F3]: the figures for the LE at PIM1 and at PIM3 were 0.38 kcal/mol heavy atom and 0.40 kcal/mol heavy atom, respectively.
Regarding `Nc1cnc2c(-c3c(F)cccc3F)cccn2c1=O` [A2], the LE was 0.26 kcal/mol heavy atom on Aurora A; 0.27 kcal/mol heavy atom on CK2; 0.25 kcal/mol heavy atom at FGF-R1; 0.38 kcal/mol heavy atom on GCK; 0.30 kcal/mol heavy atom at IGF-1R; 0.32 kcal/mol heavy atom on TAK1. Moreover, the LE stood at 0.33 kcal/mol heavy atom at CDK2 and 0.32 kcal/mol heavy atom on CLK2. The “number of kinases inhibited with >40% inhibition” value (“number … with >40% inhibition” below) in [1] is given as 55.
Consider `CC(=O)Nc1nc2cnc(-c3c(C)cccc3C)cn2n1` [B4], for which the “number of kinases of the docking panel for which activity was found” value in [1] is given as “did not inhibit any kinase in the docking panel”.
Take `CC(C)(C)Nc1c(C2CC2)nc2[nH]cnn12` [D1]: the values for the LE at EPH-B3 and on FGF-R1 were 0.33 kcal/mol heavy atom and 0.29 kcal/mol heavy atom, respectively.
Turning to `CC1CN(c2nc3ccccn3c(=O)c2N)CC(C)O1` (centres unmarked) [A1], the LE on CK2 turned out to be 0.33 kcal/mol heavy atom; on MAPKAP-K3, 0.33 kcal/mol heavy atom; at RSK2, 0.26 kcal/mol heavy atom; on Src, 0.28 kcal/mol heavy atom; at SRPK1, 0.28 kcal/mol heavy atom.
Consider `Nc1nc2cnc(-c3ccccc3)cn2n1` [B1], for which the LE came out at 0.42 kcal/mol heavy atom on CHK2; 0.46 kcal/mol heavy atom at GCK; 0.41 kcal/mol heavy atom on HER4; 0.40 kcal/mol heavy atom on IGF-1R; 0.41 kcal/mol heavy atom on Src; 0.43 kcal/mol heavy atom at TAK1. Further, the figures for the LE on YES1 and on VEG-FR were 0.41 kcal/mol heavy atom and 0.39 kcal/mol heavy atom, respectively. The “number of kinases of the docking panel for which activity was found” value in [1] amounted to 31. In [1], the “number … with >40% inhibition” value is reported as 63.
Take `COc1ccc(-c2cc3c(=O)[nH]cnc3s2)cc1OC` [C2]: the LE is 0.28 kcal/mol heavy atom at SGK1 and 0.32 kcal/mol heavy atom at GSK-3β.
Consider `O=c1c(NC(=S)NCc2ccccc2)cnc2[nH]ccn12` [F2], for which the inhibition (commonly the share of the control response that was lost under treatment) at 100 µM on MKK1 is above 40%. Moreover, the “number … with >40% inhibition” value in [1] was “one”.
In the case of `O=C(Nc1cnc2[nH]cnn2c1=O)c1ccccc1` [E1], the inhibition at 100 µM on MSK1 is above 40%. The “number … with >40% inhibition” value in experiment [1] was “one”.
